Measured values published in the NIST ThermoML archive (doi:10.1021/je4001894).
Numbers after ± are expanded uncertainties.

Assay: activity coefficient (dimensionless); of the first substance listed, at infinite dilution; xn = mol fraction of the nth substance listed
Settings: 101 kPa, Liquid, Chromatography, x1 = 0

Compound | activity coefficient (323.15 K) | activity coefficient (333.15 K) | activity coefficient (343.15 K)
CCO [ethanol] + CCC[N+]1(C)CCCC1.O=S(=O)([N-]S(=O)(=O)C(F)(F)F)C(F)(F)F | 1.75 ± 0.12 | 1.57 ± 0.1 | 1.49 ± 0.1
CCc1ccccc1 [ethylbenzene] + CCCC[N+]1(C)CCCC1.O=S(=O)([N-]S(=O)(=O)C(F)(F)F)C(F)(F)F | 1.83 ± 0.12 | 1.85 ± 0.12 | 1.87 ± 0.13
CCCCCCC [heptane] + CCCC[N+]1(C)CCCC1.O=S(=O)([N-]S(=O)(=O)C(F)(F)F)C(F)(F)F | 19.7 ± 1.4 | 18.4 ± 1.3 | 17.5 ± 1.2
CCCCCCC [heptane] + CCC[N+]1(C)CCCC1.O=S(=O)([N-]S(=O)(=O)C(F)(F)F)C(F)(F)F | 24 ± 1.6 | 23.1 ± 1.6 | 22.3 ± 1.5
C=CCCCC [hex-1-ene] + CCCC[N+]1(C)CCCC1.O=S(=O)([N-]S(=O)(=O)C(F)(F)F)C(F)(F)F | 7.51 ± 0.51 | 7.21 ± 0.49 | 7.12 ± 0.49
C=CCCCC [hex-1-ene] + CCC[N+]1(C)CCCC1.O=S(=O)([N-]S(=O)(=O)C(F)(F)F)C(F)(F)F | 7.96 ± 0.54 | 7.75 ± 0.53 | 7.65 ± 0.52
CCCCCC [hexane] + CCCC[N+]1(C)CCCC1.O=S(=O)([N-]S(=O)(=O)C(F)(F)F)C(F)(F)F | 13.9 ± 0.95 | 13.6 ± 0.93 | 12.6 ± 0.86
CCCCCC [hexane] + CCC[N+]1(C)CCCC1.O=S(=O)([N-]S(=O)(=O)C(F)(F)F)C(F)(F)F | 16.5 ± 1.1 | 15 ± 1 | 14.1 ± 0.96
CO [methanol] + CCCC[N+]1(C)CCCC1.O=S(=O)([N-]S(=O)(=O)C(F)(F)F)C(F)(F)F | 1.4 ± 0.09 | 1.28 ± 0.08 | 1.18 ± 0.08
CO [methanol] + CCC[N+]1(C)CCCC1.O=S(=O)([N-]S(=O)(=O)C(F)(F)F)C(F)(F)F | 1.38 ± 0.09 | 1.28 ± 0.08 | 1.15 ± 0.07
CC1CCCCC1 [methylcyclohexane] + CCCC[N+]1(C)CCCC1.O=S(=O)([N-]S(=O)(=O)C(F)(F)F)C(F)(F)F | 11.5 ± 0.79 | 10.7 ± 0.73 | 10.1 ± 0.69
CC1CCCCC1 [methylcyclohexane] + CCC[N+]1(C)CCCC1.O=S(=O)([N-]S(=O)(=O)C(F)(F)F)C(F)(F)F | 14.1 ± 0.96 | 12.8 ± 0.87 | 12.2 ± 0.83
CC1CCCC1 [methylcyclopentane] + CCCC[N+]1(C)CCCC1.O=S(=O)([N-]S(=O)(=O)C(F)(F)F)C(F)(F)F | 8.68 ± 0.59 | 8.24 ± 0.56 | 7.85 ± 0.54
CC1CCCC1 [methylcyclopentane] + CCC[N+]1(C)CCCC1.O=S(=O)([N-]S(=O)(=O)C(F)(F)F)C(F)(F)F | 10.3 ± 0.7 | 10.3 ± 0.7 | 9.16 ± 0.63
C[N+](=O)[O-] [nitromethane] + CCCC[N+]1(C)CCCC1.O=S(=O)([N-]S(=O)(=O)C(F)(F)F)C(F)(F)F | 0.65 ± 0.04 | 0.58 ± 0.04 | 0.57 ± 0.04
CCCCCCCCC [nonane] + CCCC[N+]1(C)CCCC1.O=S(=O)([N-]S(=O)(=O)C(F)(F)F)C(F)(F)F | 42.7 ± 2.9 | 38.3 ± 2.6 | 34.7 ± 2.4
CCCCCCCCC [nonane] + CCC[N+]1(C)CCCC1.O=S(=O)([N-]S(=O)(=O)C(F)(F)F)C(F)(F)F | 55.5 ± 3.8 | 48.7 ± 3.3 | 47.5 ± 3.2
CCCCCCCC [octane] + CCCC[N+]1(C)CCCC1.O=S(=O)([N-]S(=O)(=O)C(F)(F)F)C(F)(F)F | 28.2 ± 1.9 | 25.3 ± 1.7 | 23.5 ± 1.6
CCCCCCCC [octane] + CCC[N+]1(C)CCCC1.O=S(=O)([N-]S(=O)(=O)C(F)(F)F)C(F)(F)F | 35.8 ± 2.5 | 31.1 ± 2.1 | 30.6 ± 2.1
CCCC(C)=O [pentan-2-one] + CCCC[N+]1(C)CCCC1.O=S(=O)([N-]S(=O)(=O)C(F)(F)F)C(F)(F)F | 0.8 ± 0.05 | 0.81 ± 0.05 | 0.82 ± 0.05
CCCC(C)=O [pentan-2-one] + CCC[N+]1(C)CCCC1.O=S(=O)([N-]S(=O)(=O)C(F)(F)F)C(F)(F)F | 0.88 ± 0.06 | 0.88 ± 0.06 | 0.91 ± 0.06
CCC(=O)CC [pentan-3-one] + CCCC[N+]1(C)CCCC1.O=S(=O)([N-]S(=O)(=O)C(F)(F)F)C(F)(F)F | 0.73 ± 0.05 | 0.75 ± 0.05 | 0.77 ± 0.05
CCC(=O)CC [pentan-3-one] + CCC[N+]1(C)CCCC1.O=S(=O)([N-]S(=O)(=O)C(F)(F)F)C(F)(F)F | 0.84 ± 0.05 | 0.82 ± 0.05 | 0.86 ± 0.06
CCCO [propan-1-ol] + CCCC[N+]1(C)CCCC1.O=S(=O)([N-]S(=O)(=O)C(F)(F)F)C(F)(F)F | 2.07 ± 0.14 | 1.87 ± 0.13 | 1.68 ± 0.11
